Laboratory results published in ChEMBL document CHEMBL3593212, “Synthesis and evaluation of novel 1H-pyrrolo[2,3-b]pyridine-5-carboxamide derivatives as potent and orally efficacious immunomodulators targeting JAK3” (Bioorg Med Chem, 2015).
pIC50: −log10 of the molar value.

Experiments:
[1] = molecular target: Epidermal growth factor receptor (Homo sapiens, UniProt P00533); assay: Inhibition of EGFR (unknown origin)
[2] = Total clearance in Sprague-Dawley rat at 1 mg/kg, iv by LC/MS/MS method; assay type: ADME, organism-based; conditions: in vivo
[3] = molecular target: Interleukin-1 receptor-associated kinase 4 (Homo sapiens, UniProt Q9NWZ3); assay: Inhibition of IRAK4 (unknown origin)
Sequence of Interleukin-1 receptor-associated kinase 4 (Q9NWZ3 whole entry): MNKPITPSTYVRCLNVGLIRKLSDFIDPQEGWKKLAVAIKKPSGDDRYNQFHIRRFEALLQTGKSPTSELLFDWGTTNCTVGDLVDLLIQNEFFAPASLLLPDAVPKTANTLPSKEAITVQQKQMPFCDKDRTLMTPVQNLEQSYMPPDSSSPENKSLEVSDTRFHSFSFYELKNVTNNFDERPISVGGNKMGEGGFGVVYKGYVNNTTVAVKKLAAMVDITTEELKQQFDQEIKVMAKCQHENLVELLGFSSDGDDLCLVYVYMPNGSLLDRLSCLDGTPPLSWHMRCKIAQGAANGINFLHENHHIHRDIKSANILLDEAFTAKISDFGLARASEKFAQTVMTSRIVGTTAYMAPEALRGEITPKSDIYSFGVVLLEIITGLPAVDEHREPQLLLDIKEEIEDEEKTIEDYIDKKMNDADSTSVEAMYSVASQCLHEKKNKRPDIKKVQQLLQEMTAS

[4] = molecular target: Tyrosine-protein kinase BTK (Homo sapiens, UniProt Q06187); assay: Inhibition of BTK (unknown origin)
[5] = molecular target: Voltage-gated inwardly rectifying potassium channel KCNH2 (Homo sapiens, UniProt Q12809)
Description: Inhibition of human ERG expressed in CHOK1 cells incubated for 10 mins by Rb efflux assay

[6] = AUC (0 to 24 hrs) in Sprague-Dawley rat at 1 mg/kg, iv by LC/MS/MS method; assay type: ADME, organism-based; design: dose 1 mg/kg, time < 24 hr, route intravenous; conditions: in vivo
[7] = molecular target: RAC-alpha serine/threonine-protein kinase (Homo sapiens, UniProt P31749); assay: Inhibition of AKT1 (unknown origin)
[8] = Tmax in beagle dog at 3 mg/kg, po by LC/MS/MS method; assay type: ADME, organism-based, Canis lupus familiaris; conditions: in vivo
[9] = molecular target: Tyrosine-protein kinase JAK2 (Homo sapiens, UniProt O60674); assay: Inhibition of human JAK2 kinase domain using biotin-Lyn-substrate-2 as substrate incubated for 1 hr by ELISA method
[10] = Intrinsic clearance in cynomolgus monkey liver microsomes at 0.2 uM in presence of NADPH generating system by LC/MS/MS method; assay type: ADME, Macaca fascicularis; conditions: read-out: CLH
[11] = Tmax in Sprague-Dawley rat at 3 mg/kg, po by LC/MS/MS method; assay type: ADME, organism-based; conditions: in vivo
[12] = AUC (0 to 24 hrs) in Sprague-Dawley rat at 3 mg/kg, po by LC/MS/MS method; assay type: ADME, organism-based; design: dose 3 mg/kg, time < 24 hr, route oral; conditions: in vivo
[13] = molecular target: Tyrosine-protein kinase ITK/TSK (Homo sapiens, UniProt Q08881); assay: Inhibition of ITK (unknown origin)
Ephrin type-A receptor 2 = Ephrin type-A receptor 2 (Homo sapiens, UniProt P29317); assay: Inhibition of EPHA2 (unknown origin)
Rattus norvegicus [14] = assay: (§1) Inhibition of allograft rejection in Lewis rat vascularized heterotopic cardiac transplantation model using ACI rat as cardiac donor assessed as mean survival time by measuring cardiac allograft function by daily palpation for 28 days at 10 and 20 mg/kg, po administered beginning on day of operation once daily for 14 consecutive days (reference value: 5 days); assay type: functional, organism-based
[15] = Effective permeability of the compound at pH 7.4 by PAMPA method; assay type: physicochemical; conditions: read-out: Peff
Rattus norvegicus [16] = assay: as §1, with “10” for “10 and 20”; assay type: functional
[17] = Intrinsic clearance in human liver microsomes at 0.2 uM in presence of NADPH generating system by LC/MS/MS method; assay type: ADME; conditions: read-out: CLH
[18] = AUC (0 to 24 hrs) in beagle dog at 1 mg/kg, iv by LC/MS/MS method; assay type: ADME, organism-based, Canis lupus familiaris; design: dose 1 mg/kg, time < 24 hr, route intravenous; conditions: in vivo
[19] = molecular target: Tyrosine-protein kinase CSK (Homo sapiens, UniProt P41240); assay: Inhibition of CSK (unknown origin)
[20] = molecular target: Tyrosine-protein kinase ABL1 (Homo sapiens, UniProt P00519); assay: Inhibition of ABL (unknown origin)
[21] = molecular target: Rho-associated protein kinase 1 (Homo sapiens, UniProt Q13464); assay: Inhibition of ROCK1 (unknown origin)
[22] = molecular target: Ribosomal protein S6 kinase beta-1 (Homo sapiens, UniProt P23443); assay: Inhibition of p70S6K (unknown origin)
[23] = molecular target: Serine/threonine-protein kinase Chk1 (Homo sapiens, UniProt O14757); assay: Inhibition of CHK1 (unknown origin)
[24] = Oral bioavailability in beagle dog at 3 mg/kg by LC/MS/MS method; assay type: ADME, organism-based, Canis lupus familiaris; conditions: in vivo
[25] = Total clearance in cynomolgus monkey at 1 mg/kg, iv by LC/MS/MS method; assay type: ADME, organism-based, Macaca fascicularis; conditions: in vivo
[26] = Half life in Sprague-Dawley rat at 1 mg/kg, iv by LC/MS/MS method; assay type: ADME, organism-based; conditions: in vivo
[27] = AUC (0 to 24 hrs) in cynomolgus monkey at 3 mg/kg, po by LC/MS/MS method; assay type: ADME, organism-based, Macaca fascicularis; design: time < 24 hr, dose 3 mg/kg, route oral; conditions: in vivo
[28] = Cmax in beagle dog at 3 mg/kg, po by LC/MS/MS method; assay type: ADME, organism-based, Canis lupus familiaris; design: dose 3 mg/kg, route oral; conditions: in vivo
[29] = molecular target: Calcium/calmodulin-dependent protein kinase type II subunit alpha (Homo sapiens, UniProt Q9UQM7); assay: Inhibition of CaMK2a (unknown origin)
Sequence of Calcium/calmodulin-dependent protein kinase type II subunit alpha (Q9UQM7 whole entry): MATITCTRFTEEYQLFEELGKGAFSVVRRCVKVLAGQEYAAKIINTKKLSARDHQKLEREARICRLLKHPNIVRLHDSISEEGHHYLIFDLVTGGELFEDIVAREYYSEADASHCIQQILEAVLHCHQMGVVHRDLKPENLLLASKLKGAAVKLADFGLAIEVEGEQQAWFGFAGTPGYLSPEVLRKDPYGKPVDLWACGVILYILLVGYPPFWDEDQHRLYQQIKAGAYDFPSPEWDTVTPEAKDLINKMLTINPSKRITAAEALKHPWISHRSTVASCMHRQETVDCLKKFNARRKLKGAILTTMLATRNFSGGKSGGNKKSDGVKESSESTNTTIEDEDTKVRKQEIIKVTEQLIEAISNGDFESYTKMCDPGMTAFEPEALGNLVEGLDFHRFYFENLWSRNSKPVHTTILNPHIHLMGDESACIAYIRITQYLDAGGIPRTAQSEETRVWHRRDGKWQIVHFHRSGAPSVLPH

Aurora kinase C = Aurora kinase C (Homo sapiens, UniProt Q9UQB9); assay: Inhibition of AurC (unknown origin)
Sequence of Aurora kinase C (Q9UQB9 whole entry): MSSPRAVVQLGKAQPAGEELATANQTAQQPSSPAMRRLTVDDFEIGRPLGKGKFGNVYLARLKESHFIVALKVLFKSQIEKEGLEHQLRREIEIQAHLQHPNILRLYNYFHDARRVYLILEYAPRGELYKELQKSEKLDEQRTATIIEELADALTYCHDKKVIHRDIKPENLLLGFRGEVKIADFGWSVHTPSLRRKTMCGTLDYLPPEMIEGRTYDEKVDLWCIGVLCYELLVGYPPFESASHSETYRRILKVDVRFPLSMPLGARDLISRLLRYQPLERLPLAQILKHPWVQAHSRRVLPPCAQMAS

[30] = AUC (0 to 24 hrs) in beagle dog at 3 mg/kg, po by LC/MS/MS method; assay type: ADME, organism-based, Canis lupus familiaris; design: time < 24 hr, dose 3 mg/kg, route oral; conditions: in vivo
[31] = molecular target: Mitogen-activated protein kinase kinase kinase 9 (Homo sapiens, UniProt P80192); assay: Inhibition of MLK1 (unknown origin)
[32] = Cmax in cynomolgus monkey at 3 mg/kg, po by LC/MS/MS method; assay type: ADME, organism-based, Macaca fascicularis; design: dose 3 mg/kg, route oral; conditions: in vivo
[33] = molecular target: Mitogen-activated protein kinase 10 (Homo sapiens, UniProt P53779); assay: Inhibition of JNK3 (unknown origin)
Sequence of Mitogen-activated protein kinase 10 (P53779 whole entry): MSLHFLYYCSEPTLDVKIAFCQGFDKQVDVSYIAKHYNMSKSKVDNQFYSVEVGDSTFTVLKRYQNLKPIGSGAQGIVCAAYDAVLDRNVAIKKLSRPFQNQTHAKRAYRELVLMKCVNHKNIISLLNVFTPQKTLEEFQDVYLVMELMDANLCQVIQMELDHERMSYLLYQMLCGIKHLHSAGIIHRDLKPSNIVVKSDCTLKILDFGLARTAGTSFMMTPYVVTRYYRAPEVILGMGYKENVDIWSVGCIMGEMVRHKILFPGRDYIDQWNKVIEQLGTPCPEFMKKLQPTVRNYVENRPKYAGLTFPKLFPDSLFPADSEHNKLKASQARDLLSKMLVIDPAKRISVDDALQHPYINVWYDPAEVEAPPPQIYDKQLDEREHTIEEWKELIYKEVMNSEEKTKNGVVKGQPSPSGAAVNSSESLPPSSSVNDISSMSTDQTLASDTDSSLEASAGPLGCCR

Rattus norvegicus [34] = assay: as §1, with “at” for “at 10 and”; assay type: functional
[35] = Tmax in cynomolgus monkey at 3 mg/kg, po by LC/MS/MS method; assay type: ADME, organism-based, Macaca fascicularis; conditions: in vivo
[36] = Intrinsic clearance in rat liver microsomes at 0.2 uM in presence of NADPH generating system by LC/MS/MS method; assay type: ADME; conditions: read-out: CLH
[37] = molecular target: Casein kinase I isoform delta (Homo sapiens, UniProt P48730); assay: Inhibition of CK1delta (unknown origin)
[38] = molecular target: High affinity nerve growth factor receptor (Homo sapiens, UniProt P04629); assay: Inhibition of TRKA (unknown origin)
Sequence of High affinity nerve growth factor receptor (P04629 whole entry): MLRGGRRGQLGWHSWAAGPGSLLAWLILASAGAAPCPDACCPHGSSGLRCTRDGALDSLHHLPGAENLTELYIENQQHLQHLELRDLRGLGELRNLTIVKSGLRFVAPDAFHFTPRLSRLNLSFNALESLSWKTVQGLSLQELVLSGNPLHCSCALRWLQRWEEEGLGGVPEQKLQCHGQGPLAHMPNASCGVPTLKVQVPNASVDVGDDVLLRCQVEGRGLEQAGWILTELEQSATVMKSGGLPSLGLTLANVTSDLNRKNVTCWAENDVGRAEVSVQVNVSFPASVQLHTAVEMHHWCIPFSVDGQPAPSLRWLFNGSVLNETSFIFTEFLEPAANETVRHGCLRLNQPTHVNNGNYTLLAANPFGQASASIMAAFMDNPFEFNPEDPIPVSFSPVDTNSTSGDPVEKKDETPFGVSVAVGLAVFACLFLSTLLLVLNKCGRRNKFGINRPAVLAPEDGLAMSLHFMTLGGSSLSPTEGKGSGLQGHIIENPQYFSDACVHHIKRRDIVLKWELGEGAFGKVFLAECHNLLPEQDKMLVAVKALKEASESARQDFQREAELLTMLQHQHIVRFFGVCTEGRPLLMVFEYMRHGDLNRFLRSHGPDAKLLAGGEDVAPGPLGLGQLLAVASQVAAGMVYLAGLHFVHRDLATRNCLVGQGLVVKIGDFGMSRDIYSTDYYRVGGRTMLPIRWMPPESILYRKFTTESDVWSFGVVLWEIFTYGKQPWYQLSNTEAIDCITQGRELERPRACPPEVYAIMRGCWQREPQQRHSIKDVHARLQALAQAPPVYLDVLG

[39] = molecular target: Mitogen-activated protein kinase kinase kinase 1 (Homo sapiens, UniProt Q13233); assay: Inhibition of MEKK1 (unknown origin)
[40] = molecular target: Cyclin-dependent kinase 2/cyclin A (Homo sapiens, UniProt P24941); assay: Inhibition of CDK2/CycA (unknown origin); assay type: protein-complex assay
[41] = molecular target: Tyrosine-protein kinase JAK1 (Homo sapiens, UniProt P23458); assay: Inhibition of human JAK1 kinase domain using biotin-Lyn-substrate-2 as substrate incubated for 1 hr by ELISA method
[42] = molecular target: Protein kinase C theta type (Homo sapiens, UniProt Q04759); assay: Inhibition of PKCtheta (unknown origin)
Focal adhesion kinase 1 = Focal adhesion kinase 1 (Homo sapiens, UniProt Q05397); assay: Inhibition of FAK (unknown origin)
Sequence of Focal adhesion kinase 1 (Q05397 whole entry): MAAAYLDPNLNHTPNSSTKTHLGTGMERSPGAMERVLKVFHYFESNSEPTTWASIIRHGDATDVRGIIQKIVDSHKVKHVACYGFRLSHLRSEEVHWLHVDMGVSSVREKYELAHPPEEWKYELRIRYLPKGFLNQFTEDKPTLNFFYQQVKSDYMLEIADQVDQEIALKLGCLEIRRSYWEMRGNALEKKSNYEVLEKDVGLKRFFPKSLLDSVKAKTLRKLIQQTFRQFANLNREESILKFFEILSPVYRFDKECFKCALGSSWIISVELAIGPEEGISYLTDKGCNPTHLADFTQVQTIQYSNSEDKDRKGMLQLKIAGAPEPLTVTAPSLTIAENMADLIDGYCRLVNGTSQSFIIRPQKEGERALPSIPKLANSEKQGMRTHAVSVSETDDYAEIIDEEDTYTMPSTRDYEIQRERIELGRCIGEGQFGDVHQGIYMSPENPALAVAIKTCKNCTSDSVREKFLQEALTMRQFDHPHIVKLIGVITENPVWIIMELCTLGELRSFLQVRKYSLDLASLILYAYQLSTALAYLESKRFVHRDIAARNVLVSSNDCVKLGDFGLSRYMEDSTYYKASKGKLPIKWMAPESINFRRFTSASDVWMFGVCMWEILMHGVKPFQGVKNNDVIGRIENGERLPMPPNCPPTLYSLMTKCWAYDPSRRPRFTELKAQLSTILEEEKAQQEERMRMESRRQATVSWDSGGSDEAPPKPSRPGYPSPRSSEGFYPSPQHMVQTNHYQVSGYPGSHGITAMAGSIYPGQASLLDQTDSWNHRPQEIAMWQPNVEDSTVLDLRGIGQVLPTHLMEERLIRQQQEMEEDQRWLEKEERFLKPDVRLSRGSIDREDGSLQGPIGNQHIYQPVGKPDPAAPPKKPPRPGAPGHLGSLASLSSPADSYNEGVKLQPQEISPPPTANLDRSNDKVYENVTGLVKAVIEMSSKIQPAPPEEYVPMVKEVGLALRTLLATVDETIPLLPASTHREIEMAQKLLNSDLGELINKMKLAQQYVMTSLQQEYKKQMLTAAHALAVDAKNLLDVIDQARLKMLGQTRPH

[43] = Oral bioavailability in cynomolgus monkey at 3 mg/kg by LC/MS/MS method; assay type: ADME, organism-based, Macaca fascicularis; conditions: in vivo
[44] = Volume of distribution at steady state in cynomolgus monkey at 1 mg/kg, iv by LC/MS/MS method; assay type: ADME, organism-based, Macaca fascicularis; conditions: in vivo, read-out: Vdss
[45] = molecular target: Glycogen synthase kinase-3 beta (Homo sapiens, UniProt P49841); assay: Inhibition of GSK3beta (unknown origin)
[46] = Intrinsic clearance in beagle dog liver microsomes at 0.2 uM in presence of NADPH generating system by LC/MS/MS method; assay type: ADME, Canis lupus familiaris; conditions: read-out: CLH

Sequence of Epidermal growth factor receptor (P00533 whole entry): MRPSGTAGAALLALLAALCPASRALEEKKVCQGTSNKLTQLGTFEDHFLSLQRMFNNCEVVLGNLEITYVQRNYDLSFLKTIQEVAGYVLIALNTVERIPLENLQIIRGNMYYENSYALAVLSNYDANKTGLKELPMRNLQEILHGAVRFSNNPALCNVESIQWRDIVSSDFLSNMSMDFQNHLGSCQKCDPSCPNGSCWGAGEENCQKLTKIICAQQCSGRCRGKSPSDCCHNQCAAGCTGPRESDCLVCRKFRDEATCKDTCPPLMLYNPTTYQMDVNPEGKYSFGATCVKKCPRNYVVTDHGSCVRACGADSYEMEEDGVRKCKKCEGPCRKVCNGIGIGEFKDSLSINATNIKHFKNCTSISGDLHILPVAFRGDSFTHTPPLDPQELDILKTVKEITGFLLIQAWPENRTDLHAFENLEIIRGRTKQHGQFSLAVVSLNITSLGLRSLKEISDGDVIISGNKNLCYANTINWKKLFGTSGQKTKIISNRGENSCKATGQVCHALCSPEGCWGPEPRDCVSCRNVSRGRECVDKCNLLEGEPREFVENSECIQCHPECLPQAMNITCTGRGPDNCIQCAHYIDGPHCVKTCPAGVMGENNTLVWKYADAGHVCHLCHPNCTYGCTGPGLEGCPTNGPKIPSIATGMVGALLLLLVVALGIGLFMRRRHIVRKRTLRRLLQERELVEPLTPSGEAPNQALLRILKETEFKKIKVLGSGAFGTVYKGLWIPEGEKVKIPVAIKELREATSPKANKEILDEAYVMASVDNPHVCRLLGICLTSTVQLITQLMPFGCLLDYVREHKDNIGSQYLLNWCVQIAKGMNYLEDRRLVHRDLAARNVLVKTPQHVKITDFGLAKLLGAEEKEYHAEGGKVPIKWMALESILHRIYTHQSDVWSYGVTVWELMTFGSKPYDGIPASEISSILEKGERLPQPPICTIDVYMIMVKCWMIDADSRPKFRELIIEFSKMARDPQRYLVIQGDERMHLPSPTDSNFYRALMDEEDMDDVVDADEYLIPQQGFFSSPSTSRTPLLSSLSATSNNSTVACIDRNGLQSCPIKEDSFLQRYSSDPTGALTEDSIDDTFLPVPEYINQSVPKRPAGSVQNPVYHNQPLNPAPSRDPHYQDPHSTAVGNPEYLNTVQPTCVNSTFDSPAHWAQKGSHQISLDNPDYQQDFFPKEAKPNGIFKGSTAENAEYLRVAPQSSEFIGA

SMILES: N#Cc1ccc(N2CC[C@@H](Nc3c(C(N)=O)cnc4[nH]ccc34)[C@@H](F)C2)nc1
- pIC50 [1]: < 6.00
- clearance [2]: 5.3 mL/min/kg
- pIC50 [3]: < 6.00
- pIC50 [4]: < 6.00
- pIC50 [5]: < 4.00
- AUC(0-t) at 24 h [6]: 3200 ng·h/mL
- pIC50 [7]: < 6.00
- Tmax [8]: 2.7 h
- pIC50 [9]: 8.49
- CLint scaled at 0.2 µM [10]: 9.9 mL/min/kg
- Tmax [11]: 3.3 h
- AUC(0-t) at 24 h [12]: 6780 ng·h/mL
- pIC50 [13]: < 6.00
- pIC50 (Ephrin type-A receptor 2): < 6.00
- inhibition (Rattus norvegicus [14]): Dose-dependent effect
- Papp [15]: 9 ×10⁻⁶ cm/s
- MST (Rattus norvegicus [16]): 11.5 days
- CLint scaled at 0.2 µM [17]: 4.8 mL/min/kg
- AUC(0-t) at 24 h [18]: 5650 ng·h/mL
- pIC50 [19]: < 6.00
- pIC50 [20]: < 6.00
- pIC50 [21]: 6.72
- pIC50 [22]: < 6.00
- pIC50 [23]: 6.02
- bioavailability [24]: 49.1%
- clearance [25]: 3.8 mL/min/kg
- half-life [26]: 180 min
- AUC(0-t) at 24 h [27]: 8690 ng·h/mL
- Cmax [28]: 666 ng/mL
- pIC50 [29]: 6.00
- pIC50 (Aurora kinase C): < 6.00
- AUC(0-t) at 24 h [30]: 8300 ng·h/mL
- pIC50 [31]: 7.29
- Cmax [32]: 684 ng/mL
- pIC50 [33]: 6.25
- MST (Rattus norvegicus [34]): 22 days
- Tmax [35]: 5.3 h
- CLint scaled at 0.2 µM [36]: 27.5 mL/min/kg
- pIC50 [37]: < 6.00
- pIC50 [38]: 6.33
- pIC50 [39]: < 6.00
- pIC50 [40]: 6.23
- pIC50 [41]: 8.39
- pIC50 [42]: 6.49
- pIC50 (Focal adhesion kinase 1): < 6.00
- bioavailability [43]: 64.3%
- Vd [44]: 1.5 L/kg
- pIC50 [45]: 6.01
- CLint scaled at 0.2 µM [46]: 18.8 mL/min/kg
